Measured values: BindingDB's records for patent US9624213 (Plexxikon, 2017)

molecular target: Serine/threonine-protein kinase B-raf [V600E] (Homo sapiens, UniProt P15056, V600E); assay: Biochemical activity
Protocol: Assays for biochemical and cell based activity are known in the art, for example, as described in PCT publication WO 2007/002433, the disclosure of which is hereby incorporated by reference as it relates to such assays. For example, the biochemical activity IC50 values are determined with respect to inhibition of B-Raf V600E kinase activity or p-Erk kinase activity, where inhibition of phosphorylation of a peptide substrate is measured as a function of compound concentration. Compounds to be tested are diluted in dimethyl sulfoxide to a concentration of 0.1 mM. These are serially diluted 15 uL into 30 uL of dimethyl sulfoxide seven times in 96 well plates for a total of 8 dilution points, and for each dilution point 1 uL is added to a well of an assay plate. Plates are prepared such that each well in a 384 well plate contains 1 uL of compound in 10 uL volume with 0.1 ng Raf enzyme (i.e. any of B-Raf, c-Raf-1 or B-Raf V600E, Upstate Biotechnology or prepared by methods known to one of skill in the art), 50 mM HEPES, pH 7.0, 50 mM NaCl, 2 mM MgCl2, 1 mM MnCl2, 0.01% Tween-20, 1 mM DTT, and 100 nM biotin-MEK1 as substrate. The reaction is started with addition of 10 uL of 200 uM ATP (i.e. final 100 uM ATP). After incubation of the kinase reaction for 45 minutes at room temperature, 5 uL/well of Stop Solution is added (25 mM Hepes pH 7.5, 100 mM EDTA, 0.01% BSA with donor beads (Streptavidin coated beads, Perkin Elmer), acceptor beads (Protein A coated, Perkin Elmer), and anti phosphor MEK1/2 antibody (CellSignal), each at final concentration 10 ug/mL).

Sequence of Serine/threonine-protein kinase B-raf [V600E] (P15056 2-766 V600E limits assumed): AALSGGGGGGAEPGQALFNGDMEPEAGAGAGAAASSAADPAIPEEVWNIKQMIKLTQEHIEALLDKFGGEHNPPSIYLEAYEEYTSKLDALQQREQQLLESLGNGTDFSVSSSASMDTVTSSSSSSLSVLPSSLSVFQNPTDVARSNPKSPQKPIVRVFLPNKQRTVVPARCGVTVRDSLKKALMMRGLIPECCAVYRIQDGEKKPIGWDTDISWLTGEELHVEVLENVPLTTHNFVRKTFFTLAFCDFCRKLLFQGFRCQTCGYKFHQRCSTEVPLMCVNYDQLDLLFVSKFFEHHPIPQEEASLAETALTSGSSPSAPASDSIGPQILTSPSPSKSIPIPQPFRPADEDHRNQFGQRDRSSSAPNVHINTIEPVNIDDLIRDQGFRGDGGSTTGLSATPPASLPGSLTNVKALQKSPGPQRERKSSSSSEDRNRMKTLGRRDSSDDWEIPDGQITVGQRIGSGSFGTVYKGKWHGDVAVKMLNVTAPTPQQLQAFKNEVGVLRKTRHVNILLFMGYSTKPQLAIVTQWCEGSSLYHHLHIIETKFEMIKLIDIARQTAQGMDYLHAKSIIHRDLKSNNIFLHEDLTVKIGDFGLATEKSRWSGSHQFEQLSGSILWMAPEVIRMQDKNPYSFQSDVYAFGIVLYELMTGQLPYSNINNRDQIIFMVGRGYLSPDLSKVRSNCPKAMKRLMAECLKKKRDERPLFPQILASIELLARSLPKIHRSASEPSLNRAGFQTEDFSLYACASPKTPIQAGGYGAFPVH

Row | SMILES | IC50
1 | CCN(C)S(=O)(=O)Nc1ccc(F)c(C(=O)c2c[nH]c3ncc(-c4cnc(OC)nc4)cc23)c1F | < 100 nM
2 | CCN(C)S(=O)(=O)Nc1cccc(C(=O)c2c[nH]c3ncc(-c4ccc(Cl)cc4)cc23)c1F | < 100 nM
3 | CCN(C)S(=O)(=O)Nc1cccc(C(=O)c2c[nH]c3ncc(-c4cnc(OC)nc4)cc23)c1F | < 100 nM
4 | CN(C)c1ncc(-c2cnc3[nH]cc(C(=O)c4c(F)ccc(NS(=O)(=O)N5CCCC5)c4F)c3c2)cn1 | < 100 nM
5 | O=C(c1c(F)ccc(NS(=O)(=O)N2CCCC2)c1F)c1c[nH]c2ncc(I)cc12 | < 100 nM
6 | COc1ncc(-c2cnc3[nH]cc(C(=O)c4cccc(NS(=O)(=O)N(C)C5CC5)c4F)c3c2)cn1 | < 100 nM
7 | CNS(=O)(=O)Nc1cccc(C(=O)c2c[nH]c3ncc(-c4cnc(OC)nc4)cc23)c1F | > 100 nM
8 | CN(C)S(=O)(=O)Nc1cccc(C(=O)c2c[nH]c3ncc(-c4ccc(C#N)cc4)cc23)c1F | < 100 nM
9 | CN(C)c1ccc(-c2cnc3[nH]cc(C(=O)c4cccc(NS(=O)(=O)N(C)C)c4F)c3c2)cn1 | < 100 nM
10 | CCN(C)S(=O)(=O)Nc1cccc(C(=O)c2c[nH]c3ncc(-c4ccc(C#N)cc4)cc23)c1F | < 100 nM
11 | CCN(C)S(=O)(=O)Nc1cccc(C(=O)c2c[nH]c3ncc(-c4cccnc4)cc23)c1F | < 100 nM
12 | CCN(C)S(=O)(=O)Nc1cccc(C(=O)c2c[nH]c3ncc(-c4ccc(C)nc4)cc23)c1F | < 100 nM
13 | CCN(C)S(=O)(=O)Nc1cccc(C(=O)c2c[nH]c3ncc(-c4ccc(F)cc4)cc23)c1F | < 100 nM
14 | CN(C)S(=O)(=O)Nc1cccc(C(=O)c2c[nH]c3ncc(-c4ccc(F)cc4)cc23)c1F | < 100 nM

The next lines start with the values.

Row | IC50 | SMILES
15 | < 100 nM | Cc1ccc(-c2cnc3[nH]cc(C(=O)c4cccc(NS(=O)(=O)N(C)C)c4F)c3c2)cn1 [US9624213, Compound P-0029]
16 | < 100 nM | CCN(C)S(=O)(=O)Nc1cccc(C(=O)c2c[nH]c3ncc(C#N)cc23)c1F [US9624213, Compound P-0039]
17 | < 100 nM | COc1ncc(-c2cnc3[nH]cc(C(=O)c4cccc(NS(=O)(=O)N5CCCC5)c4F)c3c2)c(OC)n1 [US9624213, Compound P-0044]
18 | > 100 nM | CC(C)CN(C)S(=O)(=O)Nc1cccc(C(=O)c2c[nH]c3ncc(I)cc23)c1F [US9624213, Compound P-0070]
19 | < 100 nM | CCC(C)S(=O)(=O)Nc1cccc(C(=O)c2c[nH]c3ncc(-c4cnc(C5CC5)nc4)cc23)c1F (centres undefined) [US9624213, Compound P-0228]
